Data from patent US6395749B1, “Carboxamide compounds, methods, and compositions for inhibiting PARP activity” (Guilford Pharmaceuticals Inc., priority 1998, dated 2002).

Test system: C57/BL male mice
Assay: Septic shock assay (LPS plus galactosamine challenge)
Type: in vivo, mouse
Details: 60, 20, 6 and 2 mg/kg daily IP for three days, first dose 30 minutes after challenge; dose of the result not stated
Method: Groups of 10 C57/BL male mice weighing 18 to 20 g were administered a test compound, 1-carboxynaphthalene-1-carboxamide at the doses of 60, 20, 6 and 2 mg/kg, daily, by intraperitoneal (IP) injection for three consecutive days. Each animal was first challenged with lipopolysaccharide (LPS, from E. Coli, LD100 of 20 mg/animal IV) plus galactosamine (20 mg/animal IV). The first dose of test compound in a suitable vehicle was given 30 minutes after challenge, and the second and third doses were given 24 hours later on day 2 and day 3 respectively, with only the surviving animals receiving the second or third dose of the test compound. Mortality was recorded every 12 hours after challenge for the three-day testing period. 1-Carboxy-naphthalene-1-carboxamide provided a protection against mortality from septic shock of about 40%.

NC(=O)c1cccc2cccc(C(=O)O)c12 [1-Carboxy-naphthalene-1-carboxamide, 8-carboxynaphthalene-1-carboxamide]
protection against mortality from septic shock: about 40%
